# Reference: patent publication US9833497B2, “Human originated EGF domain proteins and use of the same” (CHENGDU SOURCEBIO LIMITED-LIABILITY COMPANY, priority 2013, dated 2017)
# Key:
# Format in all cases: cell-based
# Aeromonas hydrophila = assay: MIC against Gram-negative bacteria: Aeromonas hydrophila; conditions: for MIC / MIC (μg/mL) A. hydrophila: A. hydrophila
# Procedure: (§1) 1. Gram-negative bacteria, such as E. coli BL21, Pseudomonas aeruginosa, Klebsiella pneumonia, Enterobacter cloacae, Aeromonas hydrophila, Citrobacter diversus, Moraxella catarrhalis, Proteus mirabilis, Proteus vulgaris, Serratia marcescens, etc were streaked on solid LB medium and cultured respectively. Then, typical clones were picked, inoculated into common liquid LB medium respectively, and cultured at 37° C. with shaking at 185 rpm until the McFarland specific turbidity was 0.5. The bacterial culture of each of Gram-negative bacteria was centrifuged at 4000×g for 3 min, the supernatant was discarded, and the thalli were resuspended with fresh LB medium.
# (§2) 2. The above-mentioned bacterial suspensions were diluted and inoculated into 96-well plates with the final concentration of the bacterial suspension being 5×10^5 CFU/mL per well.
# (§3) 3. Each of the purified human-originated EGF domain proteins (PRT1 to PRT1498 in Table 1) was added to each of the above wells and subjected to two-fold serial dilution in concentration. Three parallel wells were set up for each concentration in the gradient.
# (§4) 4. The above-mentioned 96-well plates were placed and cultured at 37° C. in shaking incubator shaking at 175 rpm. […] The minimal inhibitory concentration MIC is defined as the lowest concentration of the recombinant protein at which there is no growth of the bacteria.
# Serratia marcescens = assay: MIC against Gram-negative bacteria: Serratia marcescens; conditions: for MIC / MIC (μg/mL) S. marcescens: S. marcescens
# Procedure: as §1, §2, §3, §4
# E. coli BL21 = assay: MIC against Gram-negative bacteria: E. coli BL21
# Procedure: as §1, §2, §3, §4
# Moraxella catarrhalis = assay: MIC against Gram-negative bacteria: Moraxella catarrhalis; conditions: for MIC / MIC (μg/mL) M. catarrhalis: M. catarrhalis
# Procedure: as §1, §2, §3, §4
# Enterobacter cloacae = assay: MIC against Gram-negative bacteria: Enterobacter cloacae; conditions: for MIC / MIC (μg/mL) E. cloacae: E. cloacae
# Procedure: as §1, §2, §3, §4
# Pseudomonas aeruginosa = assay: MIC against Gram-negative bacteria: Pseudomonas aeruginosa; conditions: for MIC / MIC (μg/mL) P. aeruginosa: P. aeruginosa
# Procedure: as §1, §2, §3, §4
# Proteus mirabilis = assay: MIC against Gram-negative bacteria: Proteus mirabilis; conditions: for MIC / MIC (μg/mL) P. mirabilis: P. mirabilis
# Procedure: as §1, §2, §3, §4
# Klebsiella pneumonia = assay: MIC against Gram-negative bacteria: Klebsiella pneumonia; conditions: for MIC / MIC (μg/mL) K. pneumonia: K. pneumonia
# Procedure: as §1, §2, §3, §4
# Citrobacter diversus = assay: MIC against Gram-negative bacteria: Citrobacter diversus; conditions: for MIC / MIC (μg/mL) C. diversus: C. diversus
# Procedure: as §1, §2, §3, §4
# Proteus vulgaris = assay: MIC against Gram-negative bacteria: Proteus vulgaris; conditions: for MIC / MIC (μg/mL) P. vulgaris: P. vulgaris
# Procedure: as §1, §2, §3, §4
# E. coli DH5α = assay: Antibacterial activity: MIC and growth curve against E. coli DH5α in 96-well plate; conditions: minimal inhibitory concentration against E. coli DH5α; 96-well plate, 5×10^5 CFU/mL, 37° C., judged after 8 h
# Procedure: 1. E. coli DH5α was exemplified. E. coli DH5α was streaked and cultured on LB solid medium. Then, a typical clone was picked and inoculated into common LB liquid medium, cultured at 37° C. with shaking at 185 rpm until the logarithmic growth phase was reached (OD600 of about 0.5). The bacterial culture was centrifuged at 4000×g for 3 min, the supernatant was discarded, and the thalli were resuspended with fresh LB medium.
# 2. The above-mentioned bacterial suspension was diluted and inoculated into a 96-well plate with the total volume of 100 μL per well and a bacterial count of 5×10^5 CFU/mL.
# 3. The recombinant protein hF VII-EGF1 was added to the above-mentioned wells with the final protein concentration in the well of the highest protein concentration being 50 μg/mL. Basing on this final concentration, a two-fold serial dilution was performed till a protein concentration gradient consisting of 50, 25, and 12.5 μg/mL was set up. Three parallel wells were set up for each concentration in the gradient.
# 4. The above-mentioned 96-well plate was placed and cultured at 37° C. in shaking incubator shaking at 175 rpm. Samples were taken every 30 min, the absorbance values were determined at 600 nm wavelength under a ultra violet spectrophotometer, and an inhibition curve was plotted. […] The minimal inhibitory concentration MIC is defined as the lowest concentration of the recombinant protein at which there is no growth of the bacteria.
# According to the experimental procedures in Example 14, the minimal inhibitory concentrations (MIC, μg/mL) of the other human-originated EGF domain proteins (PRT2 to PRT1498 in Table 1) for E. coli DH5α were determined.
# [1] = E. coli BL21, 10 h cultivation at 37° C.
# [2] = 10 h cultivation at 37° C., 5×10^5 CFU/mL
# [3] = E. coli BL21, 10 h cultivation at 37° C., 5×10^5 CFU/mL
# [4] = 96-well plate, 5×10^5 CFU/mL, 37° C., 10 h
# [5] = 10 h cultivation at 37° C., 5×10^5 CFU/mL, two-fold serial dilution
substance,measurement,setting,value
PRT1414 (EVDCMDPTCSGRGVCVRGECHCSVGWGGTNCE; listed as Homo sapiens),MIC against A. hydrophila,"Aeromonas hydrophila; Aeromonas hydrophila, 5×10^5 CFU/mL, 10 h cultivation at 37° C.",12.5 µg/mL
same,MIC against S. marcescens,"Serratia marcescens; Serratia marcescens, 5×10^5 CFU/mL, 10 h cultivation at 37° C.",25 µg/mL
same,MIC against E. coli BL21,"E. coli BL21; E. coli BL21, 5×10^5 CFU/mL, 10 h cultivation at 37° C.",12.5 µg/mL
same,MIC against M. catarrhalis,"Moraxella catarrhalis; Moraxella catarrhalis, 5×10^5 CFU/mL, 10 h cultivation at 37° C.",50 µg/mL
same,MIC against E. cloacae,"Enterobacter cloacae; Enterobacter cloacae, 5×10^5 CFU/mL, 10 h cultivation at 37° C.",50 µg/mL
same,MIC against P. aeruginosa,"Pseudomonas aeruginosa; Pseudomonas aeruginosa, 5×10^5 CFU/mL, 10 h cultivation at 37° C.",50 µg/mL
same,MIC against P. mirabilis,"Proteus mirabilis; Proteus mirabilis, 5×10^5 CFU/mL, 10 h cultivation at 37° C.",12.5 µg/mL
same,MIC against K. pneumonia,"Klebsiella pneumonia; Klebsiella pneumonia, 5×10^5 CFU/mL, 10 h cultivation at 37° C.",12.5 µg/mL
same,MIC against C. diversus,"Citrobacter diversus; Citrobacter diversus, 5×10^5 CFU/mL, 10 h cultivation at 37° C.",12.5 µg/mL
same,MIC against P. vulgaris,"Proteus vulgaris; Proteus vulgaris, 5×10^5 CFU/mL, 10 h cultivation at 37° C.",12.5 µg/mL
same,MIC,E. coli DH5α,50 µg/mL
PRT1031 (MCVTYHNGTGYCKCPEGFLGEYCQ; listed as Homo sapiens),MIC,Aeromonas hydrophila; 10 h cultivation at 37° C.,50 µg/mL
same,MIC,Serratia marcescens; 10 h cultivation at 37° C.,12.5 µg/mL
same,MIC,E. coli BL21; [1],50 µg/mL
same,MIC,Moraxella catarrhalis; 10 h cultivation at 37° C.,12.5 µg/mL
same,MIC,Enterobacter cloacae; 10 h cultivation at 37° C.,12.5 µg/mL
same,MIC,Pseudomonas aeruginosa; 10 h cultivation at 37° C.,12.5 µg/mL
same,MIC,Proteus mirabilis; 10 h cultivation at 37° C.,12.5 µg/mL
same,MIC,Klebsiella pneumonia; 10 h cultivation at 37° C.,50 µg/mL
same,MIC,Citrobacter diversus; 10 h cultivation at 37° C.,25 µg/mL
same,MIC,Proteus vulgaris; 10 h cultivation at 37° C.,50 µg/mL
same,MIC,E. coli DH5α,12.5 µg/mL
PRT848 (CQCNNRSASCDALTGACLNCQENSKGNHCEECKEGFYQSPDATKECLR; listed as Homo sapiens),MIC (μg/mL) A. hydrophila,Aeromonas hydrophila; [2],12.5 µg/mL
same,MIC (μg/mL) S. marcescens,Serratia marcescens; [2],12.5 µg/mL
same,MIC (μg/mL) E. coli BL21,E. coli BL21; [3],12.5 µg/mL
same,MIC (μg/mL) M. catarrhalis,Moraxella catarrhalis; [2],12.5 µg/mL
same,MIC (μg/mL) E. cloacae,Enterobacter cloacae; [2],50 µg/mL
same,MIC (μg/mL) P. aeruginosa,Pseudomonas aeruginosa; [2],25 µg/mL
same,MIC (μg/mL) P. mirabilis,Proteus mirabilis; [2],50 µg/mL
same,MIC (μg/mL) K. pneumonia,Klebsiella pneumonia; [2],25 µg/mL
same,MIC (μg/mL) C. diversus,Citrobacter diversus; [2],50 µg/mL
same,MIC (μg/mL) P. vulgaris,Proteus vulgaris; [2],25 µg/mL
same,MIC,E. coli DH5α,25 µg/mL
PRT764 (AQDKCALGTHGCQHICVNDRTGSHHCECYEGYTLNADKKTCS; listed as Homo sapiens),MIC (μg/mL) A. hydrophila,Aeromonas hydrophila; [2],12.5 µg/mL
same,MIC (μg/mL) S. marcescens,Serratia marcescens; [2],50 µg/mL
same,MIC (μg/mL) E. coli BL21,E. coli BL21; [3],25 µg/mL
same,MIC (μg/mL) M. catarrhalis,Moraxella catarrhalis; [2],12.5 µg/mL
same,MIC (μg/mL) E. cloacae,Enterobacter cloacae; [2],50 µg/mL
same,MIC (μg/mL) P. aeruginosa,Pseudomonas aeruginosa; [2],50 µg/mL
same,MIC (μg/mL) P. mirabilis,Proteus mirabilis; [2],25 µg/mL
same,MIC (μg/mL) K. pneumonia,Klebsiella pneumonia; [2],100 µg/mL
same,MIC (μg/mL) C. diversus,Citrobacter diversus; [2],50 µg/mL
same,MIC (μg/mL) P. vulgaris,Proteus vulgaris; [2],25 µg/mL
same,MIC,E. coli DH5α,12.5 µg/mL
PRT655 (DVDECATTDPCVGGHCVNTEGSFNCLCETGFQPSPESGECV; listed as Homo sapiens),MIC A. hydrophila,Aeromonas hydrophila; [4],25 µg/mL
same,MIC S. marcescens,Serratia marcescens; [4],25 µg/mL
same,MIC E. coli BL21,E. coli BL21; [4],50 µg/mL
same,MIC M. catarrhalis,Moraxella catarrhalis; [4],50 µg/mL
same,MIC E. cloacae,Enterobacter cloacae; [4],50 µg/mL
same,MIC P. aeruginosa,Pseudomonas aeruginosa; [4],12.5 µg/mL
same,MIC P. mirabilis,Proteus mirabilis; [4],25 µg/mL
same,MIC K. pneumonia,Klebsiella pneumonia; [4],25 µg/mL
same,MIC C. diversus,Citrobacter diversus; [4],12.5 µg/mL
same,MIC P. vulgaris,Proteus vulgaris; [4],12.5 µg/mL
same,MIC,E. coli DH5α,25 µg/mL
PRT1170 (RNSSCLPNPCHNGGTCVVNGESFTCVCKEGWEGPICA; listed as Homo sapiens),MIC A. hydrophila,Aeromonas hydrophila; [5],50 µg/mL
same,MIC S. marcescens,Serratia marcescens; [5],25 µg/mL
same,MIC E. coli BL21,E. coli BL21; [5],12.5 µg/mL
same,MIC M. catarrhalis,Moraxella catarrhalis; [5],50 µg/mL
same,MIC E. cloacae,Enterobacter cloacae; [5],100 µg/mL
same,MIC P. aeruginosa,Pseudomonas aeruginosa; [5],25 µg/mL
same,MIC P. mirabilis,Proteus mirabilis; [5],12.5 µg/mL
same,MIC K. pneumonia,Klebsiella pneumonia; [5],12.5 µg/mL
same,MIC C. diversus,Citrobacter diversus; [5],12.5 µg/mL
same,MIC P. vulgaris,Proteus vulgaris; [5],12.5 µg/mL
same,MIC,E. coli DH5α,25 µg/mL
PRT1050 (HFSRCPKQYKHYCIKGRCRFVVAEQTPSCVCDEGYIGARCE; listed as Homo sapiens),MIC A. hydrophila,Aeromonas hydrophila; [5],25 µg/mL
same,MIC S. marcescens,Serratia marcescens; [5],12.5 µg/mL
same,MIC E. coli BL21,E. coli BL21; [5],12.5 µg/mL
same,MIC M. catarrhalis,Moraxella catarrhalis; [5],12.5 µg/mL
same,MIC E. cloacae,Enterobacter cloacae; [5],25 µg/mL
same,MIC P. aeruginosa,Pseudomonas aeruginosa; [5],25 µg/mL
same,MIC P. mirabilis,Proteus mirabilis; [5],12.5 µg/mL
same,MIC K. pneumonia,Klebsiella pneumonia; [5],12.5 µg/mL
same,MIC C. diversus,Citrobacter diversus; [5],12.5 µg/mL
same,MIC P. vulgaris,Proteus vulgaris; [5],50 µg/mL
same,MIC,E. coli DH5α,25 µg/mL
PRT629 (CPCPGQSACTTIPESREVVCTHCPPGQRGRRCEVCDDGFFGDPLGLFGHPQPCHQ; listed as Homo sapiens),MIC A. hydrophila,Aeromonas hydrophila; [4],12.5 µg/mL
same,MIC S. marcescens,Serratia marcescens; [4],12.5 µg/mL
same,MIC E. coli BL21,E. coli BL21; [4],25 µg/mL
same,MIC M. catarrhalis,Moraxella catarrhalis; [4],12.5 µg/mL
same,MIC E. cloacae,Enterobacter cloacae; [4],12.5 µg/mL
same,MIC P. aeruginosa,Pseudomonas aeruginosa; [4],12.5 µg/mL
same,MIC P. mirabilis,Proteus mirabilis; [4],12.5 µg/mL
same,MIC K. pneumonia,Klebsiella pneumonia; [4],25 µg/mL
same,MIC C. diversus,Citrobacter diversus; [4],12.5 µg/mL
same,MIC P. vulgaris,Proteus vulgaris; [4],50 µg/mL
same,MIC,E. coli DH5α,12.5 µg/mL
PRT1039 (SSGICDEASCIHGGTCTAIKADSYICLCPLGFKGRHCE; listed as Homo sapiens),MIC,Aeromonas hydrophila; 10 h cultivation at 37° C.,50 µg/mL
same,MIC,Serratia marcescens; 10 h cultivation at 37° C.,50 µg/mL
same,MIC,E. coli BL21; [1],50 µg/mL
same,MIC,Moraxella catarrhalis; 10 h cultivation at 37° C.,12.5 µg/mL
same,MIC,Enterobacter cloacae; 10 h cultivation at 37° C.,25 µg/mL
same,MIC,Pseudomonas aeruginosa; 10 h cultivation at 37° C.,50 µg/mL
same,MIC,Proteus mirabilis; 10 h cultivation at 37° C.,50 µg/mL
same,MIC,Klebsiella pneumonia; 10 h cultivation at 37° C.,12.5 µg/mL
same,MIC,Citrobacter diversus; 10 h cultivation at 37° C.,50 µg/mL
same,MIC,Proteus vulgaris; 10 h cultivation at 37° C.,12.5 µg/mL
same,MIC,E. coli DH5α,50 µg/mL
